Source: PubChem BioAssay (NCI)
Where “and” joins values, the source holds several entries; their conditions need not be identical. Identical values can stand only once.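 Results reflect a 48-hour exposure of cells in 96-well plates to compound at five concentrations. GI50: concentration for 50% inhibition of growth. TGI denotes the concentration required for complete inhibition of growth.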

Assays:
Assay in all cases: DTP human tumour cell line panel, 48 h
[1] = test system: SW-620 colon
[2] = test system: SK-MEL-5 melanoma
[3] = test system: RPMI-8226 leukemia
[4] = test system: MDA-MB-435
[5] = test system: DU-145 prostate
[6] = test system: SNB-75 CNS
[7] = test system: UACC-62 melanoma
[8] = test system: SF-295 CNS
[9] = test system: SNB-19 CNS
[10] = test system: MOLT-4 leukemia
[11] = test system: SK-MEL-28 melanoma
[12] = test system: COLO 205 colon
[13] = test system: ACHN renal
[14] = test system: BT-549 breast
[15] = test system: OVCAR-8 ovarian
[16] = test system: T-47D breast
[17] = test system: UO-31 renal
[18] = test system: SK-OV-3 ovarian
[19] = test system: SF-539 CNS
[20] = test system: SF-268 CNS
[21] = test system: NCI-H460 lung
[22] = test system: SK-MEL-2 melanoma
[23] = test system: HCT-116 colon
[24] = test system: HL-60(TB) leukemia
[25] = test system: HOP-62 NSCLC
[26] = test system: MALME-3M melanoma
[27] = test system: K-562 leukemia
[28] = test system: PC-3 prostate
[29] = test system: HOP-92 NSCLC
[30] = test system: A498 renal
[31] = test system: MDA-MB-231 breast
[32] = test system: OVCAR-3 ovarian
[33] = test system: 786-0 renal
[34] = test system: A549 NSCLC
[35] = test system: U251 CNS
[36] = test system: HCT-15 colon
[37] = test system: OVCAR-5 ovarian
[38] = test system: M14 melanoma
[39] = test system: NCI-H522 lung
[40] = test system: KM12 colon
[41] = test system: HCC-2998 colon
[42] = test system: TK-10 renal
[43] = test system: SR leukemia
[44] = test system: NCI-H226 lung
[45] = test system: CAKI-1 renal
[46] = test system: NCI/ADR-RES ovarian
[47] = test system: EKVX NSCLC
[48] = test system: MCF7 breast
[49] = test system: CCRF-CEM leukemia
[50] = test system: SN12C renal
[51] = test system: UACC-257 melanoma
[52] = test system: NCI-H23 lung
[53] = test system: HS 578T breast
[54] = test system: IGROV1 ovarian
[55] = test system: LOX IMVI melanoma
[56] = test system: HT29 colon
[57] = test system: OVCAR-4 ovarian
[58] = test system: RXF 393 renal

C[C@@H]1C[C@H]2C(=O)OCC(NC(=O)[C@H](Cc3cc(F)cc(F)c3)NC(=O)Nc3ccc(Cl)cc3F)C(=O)N3CCC[C@H]3C(=O)N3CCCC[C@H]3C(=O)N[C@@H](C)C(=O)N2C1 (some centres undefined)
GI50 [1]: 3.37 µM and 0.801 µM | TGI [1]: 50 µM and > 100 µM | GI50 [2]: 1.82 µM and 0.566 µM | TGI [2]: 7.37 µM and 4.56 µM | GI50 [3]: 1.19 µM and 0.333 µM | TGI [3]: 7.42 µM and 1.72 µM | GI50 [4]: 2.25 µM and 0.495 µM | TGI [4]: 13.2 µM and 12.3 µM | GI50 [5]: 2.1 µM and 0.511 µM | TGI [5]: 50 µM and > 100 µM | GI50 [6]: 2.29 µM and 0.365 µM | TGI [6]: 50 µM and 16.9 µM | GI50 [7]: 2.3 µM and 0.644 µM | TGI [7]: 12.4 µM and 14.9 µM | GI50 [8]: 1.87 µM and 0.411 µM | TGI [8]: 11.8 µM and 7.71 µM | GI50 [9]: 2 µM and 0.46 µM | TGI [9]: 50 µM and > 100 µM | GI50 [10]: 0.437 µM and 0.793 µM | TGI [10]: 5.12 µM and 17.9 µM | GI50 [11]: 3.04 µM and 1.37 µM | TGI [11]: 12.5 µM and 16.4 µM | GI50 [12]: 1.27 µM and 0.402 µM | TGI [12]: 3.64 µM and 1.39 µM | GI50 [13]: 2.22 µM and 1.14 µM | TGI [13]: 50 µM and > 100 µM | GI50 [14]: 1.91 µM and 0.499 µM | TGI [14]: 8.74 µM and 6.72 µM | GI50 [15]: 1.79 µM and 0.408 µM | TGI [15]: 50 µM and > 100 µM | GI50 [16]: 1.73 µM and 0.549 µM | TGI [16]: 50 µM and 30.7 µM | GI50 [17]: 2.12 µM and 2.03 µM | TGI [17]: 50 µM and 65.8 µM | GI50 [18]: 2.14 µM and 1.51 µM | TGI [18]: 35.6 µM and 17.1 µM | GI50 [19]: 2.63 µM and 1.27 µM | TGI [19]: 10.5 µM and 15.4 µM | GI50 [20]: 3.15 µM and 0.645 µM | TGI [20]: 50 µM and 51.9 µM | GI50 [21]: 1.88 µM and 0.516 µM | TGI [21]: 50 µM and 17.3 µM | GI50 [22]: 1.81 µM and 0.337 µM | TGI [22]: 8.07 µM and 3.28 µM | GI50 [23]: 1.96 µM and 0.355 µM | TGI [23]: 7.37 µM and 2.04 µM | GI50 [24]: 1.73 µM and 0.287 µM | TGI [24]: 8.21 µM and 1.53 µM | GI50 [25]: 2.03 µM and 1.07 µM | TGI [25]: 50 µM and 35.8 µM | GI50 [26]: 3.1 µM and 1.64 µM | TGI [26]: 16.7 µM and 16.3 µM | GI50 [27]: 0.399 µM | TGI [27]: > 100 µM | GI50 [28]: 1.7 µM and 0.373 µM | TGI [28]: 29.4 µM and 19 µM | GI50 [29]: 1.41 µM and 0.399 µM | TGI [29]: 8.43 µM and 7.29 µM | GI50 [30]: 2.47 µM | TGI [30]: 28.5 µM and 19.2 µM | GI50 [31]: 1.65 µM and 0.484 µM | TGI [31]: 5.9 µM and 4.24 µM | GI50 [32]: 2.23 µM and 0.55 µM | TGI [32]: 50 µM and 11.4 µM | GI50 [33]: 3.06 µM and 1.18 µM | TGI [33]: 50 µM and 55.5 µM | GI50 [34]: 1.96 µM and 0.916 µM | TGI [34]: 50 µM and > 100 µM | GI50 [35]: 2.2 µM and 0.514 µM | TGI [35]: 50 µM and 28.8 µM | GI50 [36]: 1.96 µM and 0.468 µM | TGI [36]: 37.3 µM and 10.4 µM | GI50 [37]: 2.34 µM and 0.751 µM | TGI [37]: 10.9 µM and 16.5 µM | GI50 [38]: 2.05 µM and 0.448 µM | TGI [38]: 9.05 µM and 10.3 µM | GI50 [39]: 1.44 µM and 0.38 µM | TGI [39]: 8.78 µM and 5.8 µM | GI50 [40]: 3.33 µM and 2.5 µM | TGI [40]: 27.1 µM and 19.7 µM | GI50 [41]: 2.74 µM and 0.619 µM | TGI [41]: 11.2 µM and 4.46 µM | GI50 [42]: 3.04 µM and 1.49 µM | TGI [42]: 50 µM and 33.8 µM | GI50 [43]: 0.964 µM and 1.37 µM | TGI [43]: 6.9 µM and 14.4 µM | GI50 [44]: 2.08 µM and 0.312 µM | GI50 [45]: 1.9 µM and 0.4 µM | TGI [45]: 50 µM and 15.6 µM | GI50 [46]: 7.72 µM and 2.87 µM | TGI [46]: 50 µM and > 100 µM | GI50 [47]: 2.16 µM and 0.643 µM | TGI [47]: 50 µM and 97.1 µM | GI50 [48]: 1.89 µM and 0.39 µM | TGI [48]: 50 µM and 20 µM | GI50 [49]: 2.18 µM and 0.51 µM | TGI [49]: 47.2 µM and 19 µM | GI50 [50]: 1.68 µM and 0.444 µM | TGI [50]: 50 µM and 82.4 µM | GI50 [51]: 1.45 µM and 0.449 µM | TGI [51]: 6.43 µM and 7.05 µM | GI50 [52]: 2.79 µM | TGI [52]: 50 µM | GI50 [53]: 1.74 µM and 0.603 µM | TGI [53]: 50 µM and 18.6 µM | GI50 [54]: 4.56 µM and 1.6 µM | TGI [54]: 50 µM and 81.6 µM | GI50 [55]: 0.898 µM and 0.776 µM | GI50 [56]: 1.91 µM and 0.595 µM | TGI [56]: 8.68 µM and 3.37 µM | GI50 [57]: 1.66 µM and 0.482 µM | TGI [57]: 50 µM and > 100 µM | GI50 [58]: 2.89 µM and 1.69 µM | TGI [58]: 13.4 µM and 11.5 µM
